The values below come from patent US12122787B2, “Fused pyridone compound, and preparation method therefor and use thereof” (SHANGHAI JEMINCARE PHARMACEUTICALS CO., LTD, priority 2019, dated 2024).

Broadly, the GI50 is the concentration that inhibits growth by half. A high value points to less potent growth inhibition. A word on the Cmax: it is the maximum level reached in the sampled fluid or tissue. For orientation: IC50 means the concentration that gives 50% inhibition. Usually bioavailability stands for the share of a dose that reaches the circulation, judged against a reference dose that is usually intravenous. Broadly, the AUC(0-inf) is the area under the concentration-time curve extrapolated to infinity. Low readings indicate low exposure, high ones high exposure. In general, half-life refers to how long it takes for the measured level to halve.

The structures appear in SMILES notation. Read-outs that look alike come from different tables or passages of the source.

In data set [1] the test system is NCI-H358 cells expressing KRAS-G12C. Kind of data set: Growth inhibition of tumor cell line expressing KRAS-G12C (Cell Titer Glo), NCI-H358. Format: cell-based. On the procedure:
(§1) The ability of the compounds of the present disclosure to inhibit the growth of cells expressing KRAS-G12C was evaluated by measuring the cell viability and calculating the GI50 values.
(§2) The tumor cell line NCI-H358 (ATCC catalogue number CRL-5807) expressing KRAS-G12C was cultured in RPMI medium supplemented with 10% fetal bovine serum and penicillin/streptomycin, and the tumor cell line MIA PaCa2 (ATCC CRL-1420) expressing KRAS-G12C was cultured in DMEM medium supplemented with 10% fetal bovine serum, 2.5% horse serum, and penicillin/streptomycin.
(§3) Cells NCI-H358 and MIA-Paca2 were inoculated into black transparent bottom 384-well plate (PerkinElmer catalogue number 6007460) with cell density of 1000 and 800 respectively, and the cells were allowed to adhere to the wall overnight (8-12 hours). After the cells adhered to the wall, the experimental group was added with the compound of the present disclosure diluted 5 times the concentration of the working solution (final concentration containing 0.1% dimethyl sulfoxide, i.e. DMSO); the control group was added with the same dilution as the experimental group (final concentration containing 0.1% DMSO). After 72 hours, Cell Titer Glo reagent (Promega catalogue number G7572) was used to detect ATP content according to the instruction method to determine the amount of cell proliferation. The brief operation steps were as follows: the cell plate was taken out and kept at normal temperature for equilibrium for 30 minutes; Cell Titer Glo reagent with the same volume as the culture was added; the culture plate was placed on a shaker for shaking and cracking for 2 minutes; the culture plate was left to stand at room temperature for 10 minutes; then the light signal value was read by microplate reader EnVision (PerkinElmer).
(§4) Data from all experimental groups were used to calculate the respective percent inhibition using the DMSO group, and the GI50 was calculated using the data processing software GraphPad to analyze the inhibition rates produced by the 9 compound dose concentrations diluted at ⅓-fold ratio.
A general note: Cellular ATP, detected with luciferase, serves as a proxy for viable cell number.

The test system of data set [2] is MIA PaCa2 cells expressing KRAS-G12C. Kind of data set: Growth inhibition of tumor cell line expressing KRAS-G12C (Cell Titer Glo), MIA PaCa2. Format: cell-based. The conditions noted are these: MIA-Paca2, 72 hours. How it is done:
as §1, §2, §3, §4

Data set [3] can be described thus: In vivo pharmacokinetic evaluation in mice by intravenous injection and oral administration. To be noted: male ICR mice. On the procedure: In this experimental embodiment, in vivo pharmacokinetic evaluation was performed in mice by intravenous injection and oral administration.
Experimental methods and conditions: Male ICR mice were given a single dose of 1 mg/Kg (intravenous injection, solvent 5% DMSO+15% Solutol+80% saline) and 5 mg/Kg (intragastric administration, solvent 1% Tween80/2% HPMC/97% water) of the compound to be tested, respectively; 5 min, 15 min, 30 min, 1 hour, 2 hours, 4 hours, 6 hours, 8 hours, 24 hours after administration, blood was collected from the orbital vein, and each sample was collected at approximately 0.20 mL, anticoagulated with sodium heparin, placed on ice after collection, and centrifuged within 1 hour to separate the plasma for measurement. Plasma drug concentration in plasma was detected by liquid chromatography tandem mass spectrometry (LC/MS/MS) to calculate pharmacokinetic parameters.

Data set [4] has as its system phosphorylated ERK (Thr202/Tyr204) in NCI-H358 cells expressing mutant RAS(G12C). Kind of data set: Inhibition of RAS-mediated signal transduction: phosphorylated ERK ELISA in NCI-H358 cells. Type of data set: cell-based. To be noted: NCI-H358 cells, 2 hours of treatment, pERK normalized by Janus Green B, read-out: p-ERK IC50 (NCI H358). In general terms: ELISA stands for enzyme-linked immunosorbent assay.

Setting [5] is: intragastric administration 5 mg/kg vs intravenous 1 mg/kg.
[6] abbreviates: intragastric administration 5 mg/kg, plasma.
[7] abbreviates: intravenous administration 1 mg/kg, plasma.
Where [8] appears, read: mouse, po, intragastric administration 5 mg/kg, plasma.
Where [9] appears, read: mouse, intravenous administration 1 mg/kg, plasma.

In data set [1] (NCI-H358, 72 hours), `C=CC(=O)N1C[C@@H]2C(=O)N(CCN(C)C)c3c(c4cc(Cl)c(-c5c(F)cccc5OC)c(F)c4n(-c4c(C)ccnc4C(C)C)c3=O)N2C[C@H]1C` (atropisomer, axis not shown) [Compound 27C] showed a GI50 of 5 nM. Further, the GI50 in data set [2] worked out at 3 nM. Moreover, the “F (%)” value in data set [3] (setting [5]) came to 20.30%. Moreover, in data set [3] (setting [6]), the “AUCinf” value was determined as 526.88 ng·h/mL, the “Cmax” value worked out at 133.67 ng/mL and the “T1/2” value came to 1.78 h. Besides, in data set [3] (setting [7]), the “AUCinf” value was found to be 519.01 ng·h/mL, the “Cl” value stood at 32.11 mL/min/kg, the “T1/2” value was determined as 1.76 h and the “Vz” value turned out to be 4.89344 L/kg. Moreover, the IC50 in data set [4] is 4 nM.

In data set [1] (NCI-H358, 72 hours), `C=CC(=O)N1CC2COc3c(c4cc(F)c(-c5c(O)cccc5F)c(F)c4n(-c4c(C)ccnc4C(C)C)c3=O)N2CC1C` (single isomer, unassigned) [Compound 3B-2] displayed a GI50 of 5 nM. Also, in data set [2], halving of growth (GI50) required 31 nM. In addition, the “F (%)” value in data set [3] (setting [5]) is given as 17.01%. Besides, in data set [3] (setting [6]), the “AUCinf” value stood at 1984.18 ng·h/mL, the “Cmax” value is reported as 746.67 ng/mL and the “T1/2” value is 3.96 h. In data set [3] (setting [7]), the “AUCinf” value came out at 2333.44 ng·h/mL, the “Cl” value was 7.14 mL/min/kg, the “T1/2” value amounted to 5.99 h and the “Vz” value is 3.7066 L/kg. For the same compound, in data set [4], the IC50 is 6 nM.

Take `C=CC(=O)N1C[C@@H]2CN(C)c3c(c4cc(F)c(-c5c(O)cccc5F)c(F)c4n(-c4c(C)ccnc4C(C)C)c3=O)N2C[C@H]1C` (atropisomer, axis not shown) [Compound 16A-1]: the GI50 in data set [1] (Homo sapiens, NCI-H358, 72 h) was determined as 12 nM; in data set [2] (Homo sapiens, MIA PaCa-2, 72 h) it was 55 nM. Moreover, the IC50 in data set [4] is 11 nM.

`C=CC(=O)N1C[C@@H]2CN(CC(N)=O)c3c(c4cc(F)c(-c5c(O)cccc5F)c(F)c4n(-c4c(C)ccnc4C(C)C)c3=O)N2C[C@H]1C` [Compound 44A]: the GI50 in data set [1] (Homo sapiens, NCI-H358, 72 h) came out at 424 nM; in data set [2] (Homo sapiens, MIA PaCa-2, 72 h), 1570 nM. Besides, the IC50 in data set [4] (Homo sapiens, NCI-H358, 2 h) was 580 nM.

As for `C=CC(=O)N1C[C@@H]2C(=O)N(C)c3c(c4cc(Cl)c(-c5c(F)cccc5OC)c(F)c4n(-c4c(C)ccnc4C(C)C)c3=O)N2C[C@H]1C` [Compound 42A], the GI50 in data set [1] (Homo sapiens, NCI-H358, 72 h) worked out at 9 nM; in data set [2] (Homo sapiens, MIA PaCa-2, 72 h) it was 228 nM. Moreover, the IC50 in data set [4] (Homo sapiens, NCI-H358, 2 h) was 9 nM.

As for `C=CC(=O)N1C[C@@H]2C(=O)N(C)c3c(c4cc(F)c(-c5c(O)cccc5F)c(F)c4n(-c4c(C(C)C)ncnc4C(C)C)c3=O)N2C[C@H]1C` [Compound 20B], the GI50 in data set [1] (NCI-H358, 72 hours) is 413 nM; in data set [2], 1600 nM. The IC50 in data set [4] was 264 nM.

Regarding `C=CC(=O)N1CCN(c2nc(=O)n(-c3c(C)ccnc3C(C)C)c3nc(-c4c(O)cccc4F)c(F)cc23)[C@@H](C)C1` [AMG 510], in data set [3] (mouse, plasma, oral, intragastric administration 5 mg/kg vs intravenous 1 mg/kg), the bioavailability worked out at 17.6%. In data set [3] (setting [8]), this compound had an AUC(0-inf) of 155 ng·h/mL and a half-life of 0.57 h. In addition, the Cmax in data set [3] (mouse, po, intragastric administration 5 mg/kg, plasma, read-out: Cmax) amounted to 177 ng/mL. For the same compound, in data set [3] (setting [9]), the AUC(0-inf) is 176 ng·h/mL, the clearance was 94.6 mL/min/kg and the half-life was 0.26 h. In data set [3] (mouse, intravenous administration 1 mg/kg, plasma, read-out: Vz), the Vd turned out to be 2.16 L/kg.

Take `C=CC(=O)N1CC2COc3c(c4cc(Cl)c(-c5c(O)cccc5F)c(F)c4n(-c4c(C)ccnc4C(C)C)c3=O)N2CC1C` (single isomer, unassigned) [Compound 18B-2]: the GI50 in data set [1] (NCI-H358, 72 hours) amounted to 149 nM; in data set [2] it was 172 nM. Moreover, the 50% inhibitory concentration (IC50) in data set [4] was determined as 102 nM.

In the case of `C=CC(=O)N1C[C@@H]2C(=O)Nc3c(c4cc(F)c(-c5c(O)cccc5F)c(F)c4n(-c4c(C)ccnc4C(C)C)c3=O)N2C[C@H]1C` [Compound 22A], the GI50 in data set [1] (NCI-H358, 72 hours) was found to be 10 nM; in data set [2], 24 nM. Also, the IC50 in data set [4] was 16 nM.

For `C=CC(=O)N1C[C@@H]2CN(C)c3c(c4cc(Cl)c(-c5c(O)cccc5F)nc4n(-c4c(C)ccnc4C(C)C)c3=O)N2C[C@H]1C` [Compound 8], the GI50 was 22 nM in data set [1] (Homo sapiens, NCI-H358, 72 h) and 37 nM in data set [2] (Homo sapiens, MIA PaCa-2, 72 h). Also, the IC50 in data set [4] (Homo sapiens, NCI-H358, 2 h) is 24 nM.

For `C=CC(=O)N1C[C@@H]2COc3c(c4cc(Cl)c(-c5c(O)cccc5F)c(F)c4n(C)c3=O)N2C[C@H]1C` [Compound 4A], the GI50 is 523 nM in data set [1] (Homo sapiens, NCI-H358, 72 h) and 2400 nM in data set [2] (Homo sapiens, MIA PaCa-2, 72 h). In addition, in data set [4] (Homo sapiens, NCI-H358, 2 h), the IC50 stood at 159 nM.

Regarding `C=CC(=O)N1C[C@@H]2C(=O)N(CCN(C)C)c3c(c4cc(Cl)c(-c5c(O)cccc5F)c(F)c4n(-c4c(C)ccnc4C(C)C)c3=O)N2C[C@H]1C` (single isomer, unassigned) [Compound 26C], the GI50 in data set [1] (NCI-H358, 72 hours) came out at 2 nM; in data set [2] it was 1 nM. In data set [4], the IC50 turned out to be 2 nM.

On to `C=CC(=O)N1C[C@@H]2C(=O)N(CCN(C)C)c3c(c4cc(Cl)c(-c5c(F)cccc5OC)nc4n(-c4c(C)ccnc4C(C)C)c3=O)N2C[C@H]1C` [Compound 30A], for which the GI50 in data set [1] (Homo sapiens, NCI-H358, 72 h) stood at 208 nM; in data set [2] (Homo sapiens, MIA PaCa-2, 72 h), 231 nM. Further, in data set [4] (Homo sapiens, NCI-H358, 2 h), the IC50 came to 170 nM.

Turning to `C=CC(=O)N1C[C@@H]2COc3c(c4cc(Cl)c(-c5c(O)cccc5F)c(F)c4n(-c4c(C)ccnc4C(C)C)c3=O)N2C[C@H]1C` [Compound 18A-1], the GI50 in data set [1] (NCI-H358, 72 hours) is 2 nM; in data set [2], 10 nM. The IC50 in data set [4] is 4 nM.
